# Source: patent publication EP0450065A1, “ANTIVIRAL AGENT” (priority 1988, dated 1990)
# Where two headings read alike, the source gives them in different places.
# Experiments:
# [1] = test system: herpes simplex virus type 1 (KOS strain); test: One-step growth of virus, plaque assay with vero cells; format: cell-based; conditions: for Intracellular virus Average / Intracellular virus Control ratio % / Intracellular virus Control ratio -logT/C: 24 hours
# Description: Antiviral activity of Compound A and Compound B against one-step growth of herpes simplex virus type 1 (KOS strain) Cells grown in a monolayer, with a sample of a given compound diluted in a varying ratio added, were pretreated for 15 minutes. Then, the pretreated cells were infected with the herpes simplex virus type 1 (KOS strain) at an infecting ratio of 0.25 and left standing for 24 hours. At the end of the standing, the intracellular and extracellular amounts of virus were determined by the plaque assay with vero cells.
# [2] = test system: herpes simplex virus type 1 (KOS strain); test: 50% Tissue culture infective dose (TCID50), Read-Munch method, negative logarithm of virus dilution; format: cell-based; parameters: key to Cytopathic effect [CPE] (5days) TCID50 / Cytopathic effect [CPE] (3days) TCID50: TCID50 as negative log of maximum virus dilution ratio; key to Cytopathic effect [CPE] (5days) △TCID50 / Cytopathic effect [CPE] (3days) △TCID50: difference from control TCID50, in negative log of virus dilution; conditions: HSV-1 (KOS), Example 7; for Cytopathic effect [CPE] (3days) △TCID50 / Cytopathic effect [CPE] (5days) △TCID50: difference from control
# Description: The amount of virus infecting 50% of tissues (TCID₅₀) was determined by the Read-Munch method and expressed in negative logarithm of the maximum radio of dilution of virus. The difference of the amount thus determined from the amount found in the control (omitting the treatment with a chemical) was reported as ΔTCID₅₀. A sample whose ΔCPE's found on the last day of observation and on each of the days spent for the observation exceeded 1.0 was evaluated as effective.
# (§1) Antiviral activity of Compound A and Compound B against herpes simplex virus type 1 (KOS strain) The test was carried out by following the procedure of Example 3.
# vero cells [3] = conditions: african green monkey
# Description: Compound A and Compound B were severally dissolved in distilled water in a concentration of 5 mg/ml, to prepare master solutions. Each of the master solutions was suitably diluted with an Eagle's MEM culture medium containing 10% fetal bovine serum. A 0.2-ml portion of the resultant dilution product was placed on vero cells cultured in advance on a microplate and grown in a monolayer, cultured further thereon at 37°C for three to five days. Samples taken severally after three days'and five days'culture were placed under a microscope and tested for cytopathogenic effect brought about by a chemical agent.
# [4] = test system: herpes simplex virus type 1 (KOS strain); test: Control of CPE (cytopathic effect) manifestation in vero cells; format: cell-based; conditions: HSV-1 (KOS), Example 7; for Cytopathic effect [CPE] (3days) △CPE / Cytopathic effect [CPE] (5days) △CPE: difference from control
# Description: Vero cells cultured and grown in a monolayer on microplates to test for cytopathic effect due to viral infection, with solutions of Compound A diluted to varying ratios and solutions of virus diluted to varying ratios added severally thereto in a volume of 0.1 ml, were cultured under the conditions of 5% CO₂ and 37°C and were examined for CPE manifestation under a microscope. The observation was continued for five to six days.
# The degree of CPE brought about by viral infection was rated on the five-point scale, wherein 3 stands for CPE observed on not less than 75% of cultured cells, 2 for CPE observed on 50% of cultured cells, 1 for CPE observed on 25% of cultured cells, 0.5 for occurrence of one to two extremely minute DPE spots, and 0 for perfect absence of recognizable CPE. The CPE scores obtained at the four holes in each microplate were averaged and the difference of the average from the average obtained in the control (omitting the treatment with a chemical) was reported as ΔCPE.
# as §1
# vero cells [5] = conditions: control ratio on propagation of vero cells, 72hr
# Description: Samples of the control group contained 0.1 ml of a culture solution (an Eagle's MEM culture medium containing 10% fetal bovine serum).
# The test was conducted by using three culture tubes per group, culturing the cells in the tubes at 37°C for three days, and taking count of live cells by the dye-exclusion method.
substance,measurement,setting,value
K₇PW₁₀Ti₂O₄₀.6H₂O [Compound B],Intracellular virus Average,"[1]; 50 μg/ml, extracellular virus",5.83×10^5 /dish
same,Intracellular virus Control ratio %,"[1]; 50 μg/ml, extracellular virus",98.1%
same,Intracellular virus Control ratio -logT/C,"[1]; 50 μg/ml, extracellular virus",1.711
same,Intracellular virus Average,[1]; 50 μg/ml,6.00×10^5 /dish
same,Intracellular virus Control ratio %,[1]; 50 μg/ml,99.8%
same,Intracellular virus Control ratio -logT/C,[1]; 50 μg/ml,2.831
same,Intracellular virus Average,"[1]; 100 μg/ml, extracellular virus",2.10×10^5 /dish
same,Intracellular virus Control ratio %,"[1]; 100 μg/ml, extracellular virus",99.3%
same,Intracellular virus Control ratio -logT/C,"[1]; 100 μg/ml, extracellular virus",2.155
same,Intracellular virus Average,[1]; 100 μg/ml,1.12×10^5 /dish
same,Intracellular virus Control ratio -logT/C,[1]; 100 μg/ml,3.560
same,Intracellular virus Control ratio %,"[1]; 100 μg/ml, 1440 min",>99.9%
same,Intracellular virus Average,"[1]; 200 μg/ml, extracellular virus",4.95×10^4 /dish
same,Intracellular virus Control ratio %,"[1]; 200 μg/ml, extracellular virus",99.8%
same,Intracellular virus Control ratio -logT/C,"[1]; 200 μg/ml, extracellular virus",2.783
same,Intracellular virus Average,[1]; 200 μg/ml,1.07×10^3 /dish
same,Intracellular virus Control ratio -logT/C,[1]; 200 μg/ml,5.580
same,Intracellular virus Control ratio %,"[1]; 200 μg/ml, 1440 min",>99.9%
same,control of the intracellular and extracellular viruses in the one-step growth,"[1]; concentration not given, 1440 min",not less than 99.9%
same,Cytopathic effect [CPE] (3days) TCID50,[2]; 100 μg/ml,3.5
same,Cytopathic effect [CPE] (5days) TCID50,[2]; 100 μg/ml,3.5
same,Cytopathic effect [CPE] (3days) △TCID50,[2]; 100 μg/ml,2.0
same,Cytopathic effect [CPE] (5days) △TCID50,[2]; 100 μg/ml,2.5
same,Cytopathic effect [CPE] (3days) TCID50,[2]; 200 μg/ml,3.5
same,Cytopathic effect [CPE] (5days) TCID50,[2]; 200 μg/ml,3.5
same,Cytopathic effect [CPE] (3days) △TCID50,[2]; 200 μg/ml,2.0
same,Cytopathic effect [CPE] (5days) △TCID50,[2]; 200 μg/ml,2.5
same,maximum nontoxic doses (MNTD),vero cells [3],> 200 µg/mL
same,Cellular toxity (3 days) Maximum nontoxic does,vero cells [3]; 72 h,>200 µg/mL
same,Cellular toxity (5 days) Maximum nontoxic does,vero cells [3]; 120 h,>200 µg/mL
same,Cytopathic effect [CPE] (3days) Average,[4]; 100 μg/ml,0
same,Cytopathic effect [CPE] (5days) Average,[4]; 100 μg/ml,0
same,Cytopathic effect [CPE] (3days) △CPE,[4]; 100 μg/ml,2.0
same,Cytopathic effect [CPE] (5days) △CPE,[4]; 100 μg/ml,3.0
same,Cytopathic effect [CPE] (3days) Average,[4]; 200 μg/ml,0
same,Cytopathic effect [CPE] (5days) Average,[4]; 200 μg/ml,0
same,Cytopathic effect [CPE] (3days) △CPE,[4]; 200 μg/ml,2.0
same,Cytopathic effect [CPE] (5days) △CPE,[4]; 200 μg/ml,3.0
same,Ratio (%),vero cells [5]; 100 μg/ml,absolutely no effect
same,Ratio (%),vero cells [5]; 200 μg/ml,absolutely no effect
